Publication PMC3997483, “Aminostyrylbenzofuran Directly Reduces Oligomeric Amyloid-β and Reverses Cognitive Deficits in Alzheimer Transgenic Mice” (PLoS ONE, 2014)
Values after ≈ are worked out from the molar mass of the structure shown. Like-named read-outs stand apart in the source and are kept apart here.

What was measured:
[1] = Metabolic stability in liver microsomes; assay type: in vitro ADME; conditions: mouse liver microsomes
APP/PS1 TG mice = assay: Y-maze, prophylactic trial; assay type: in vivo, mouse; conditions: 5 to 12 months of age
in vitro = conditions: monkey, liver microsomes
Solubility studies = assay type: physicochemical
Method: Solubility studies Solubility of KMS88009 in distilled water (DW), simulated gastric fluid (SGF, pH 1.2), simulated intestinal fluid (SIF, pH 6.8) and DMSO/tween-20/saline was determined. Excess amounts of KMS88009 were placed in screw-capped vials containing 2 mL of DW, SGF, SIF and DMSO/tween-20/saline. Suspensions were vortexed for 2 min and kept in a shaking water-bath at 37 °C. We transferred 250 μL of each sample to the filter insert of centrifuge tubes. After centrifugation at 16,000 rpm for 15 min, the filtrates of DW, SGF and SIF were analyzed by HPLC (Agilent 1200 series, USA). Values are expressed as the mean ± SD of 2 independent experiments.

[2] = Metabolic stability in liver microsomes; assay type: in vitro ADME, human
soluble Aβ oligomers = assay: Dot-blot immunoassay (A11/6E10) of soluble Aβ oligomers in hippocampus, prophylactic trial; assay type: in vivo, mouse; conditions: hippocampus soluble fraction
Method: Mice subjected to behavior tests were sacrificed and levels of Aβ in their brains were analyzed. After removing olfactory lobe and cerebellum of brain, hippocampus and cerebral cortex were separated. The separated regions were Dounce-homogenized first in 10-fold mass of a lysis buffer (RIPA, 150 mM NaCl, 1% NP-40, 0.5% deoxycholic acid, 0.1% SDS and 50 mM tris, pH 8.0) or tris buffer (50 mM tris and pH 8.0) containing protease inhibitor cocktail (Pierce, USA) for prophylactic or therapeutic treatment groups, respectively. The homogenates were then centrifuged at 16,000 g for 20 min at 4°C. The supernatant (soluble Aβ fraction) was collected and stored at −70°C until analyzed. The resulting pellet was solubilized in 20-fold mass of cold guanidine solution (5 M guanidine HCl, 50 mM tris HCl and pH 8.0) at room temperature for 4 hr followed by dilution with cold Dulbecco's phosphate buffered saline (PBS) with 5% BSA and 0.03% tween-20. The diluent was centrifuged at 16,000 g for 20 min at 4°C to obtain the insoluble Aβ fraction. The tissue concentrations of Aβ40 and Aβ42 in the soluble and insoluble fraction were measured using Aβ-detecting sandwich enzyme-linked immunosorbent assay (ELISA) kit (BioSource, USA). The levels of soluble Aβ oligomers were measured by a dot-blot immunoassay with an anti-oligomer antibody and an anti-Aβ antibody on soluble fraction of hippocampus homogenates. The homogenate sample (3 µL) was spotted onto nitrocellulose membrane (Whatman, UK). After blocking with 5% BSA in tris-buffered saline (TBS) for 1 hr at room temperature, the membrane was incubated with rabbit anti-oligomer polyclonal antibody (A11; 1∶1,000; Millipore, USA) overnight at 4°C, followed by incubation with HRP-secondary anti-rabbit antibody (1∶5,000; Millipore, USA) for 1 hr at room temperature. Blots were developed using ECL reagents (PerkinElmer, USA). […] The density of dots was analyzed with Multi Gauge program (Fuji Film, Japan) and the data was normalized to the average density of the TG control group. […]

[3] = Metabolic stability in liver microsomes; assay type: in vitro ADME; conditions: dog liver microsomes
[4] = Metabolic stability in liver microsomes; assay type: in vitro ADME; conditions: rat liver microsomes
Aβ40 and Aβ42 = assay: Aβ40/Aβ42 sandwich ELISA of brain tissue, prophylactic trial; assay type: in vivo, mouse
Method: Mice subjected to behavior tests were sacrificed and levels of Aβ in their brains were analyzed. After removing olfactory lobe and cerebellum of brain, hippocampus and cerebral cortex were separated. The separated regions were Dounce-homogenized first in 10-fold mass of a lysis buffer (RIPA, 150 mM NaCl, 1% NP-40, 0.5% deoxycholic acid, 0.1% SDS and 50 mM tris, pH 8.0) or tris buffer (50 mM tris and pH 8.0) containing protease inhibitor cocktail (Pierce, USA) for prophylactic or therapeutic treatment groups, respectively. […] The supernatant (soluble Aβ fraction) was collected and stored at −70°C until analyzed. The resulting pellet was solubilized in 20-fold mass of cold guanidine solution (5 M guanidine HCl, 50 mM tris HCl and pH 8.0) at room temperature for 4 hr followed by dilution with cold Dulbecco's phosphate buffered saline (PBS) with 5% BSA and 0.03% tween-20. […] The tissue concentrations of Aβ40 and Aβ42 in the soluble and insoluble fraction were measured using Aβ-detecting sandwich enzyme-linked immunosorbent assay (ELISA) kit (BioSource, USA). The levels of soluble Aβ oligomers were measured by a dot-blot immunoassay with an anti-oligomer antibody and an anti-Aβ antibody on soluble fraction of hippocampus homogenates. The homogenate sample (3 µL) was spotted onto nitrocellulose membrane (Whatman, UK). After blocking with 5% BSA in tris-buffered saline (TBS) for 1 hr at room temperature, the membrane was incubated with rabbit anti-oligomer polyclonal antibody (A11; 1∶1,000; Millipore, USA) overnight at 4°C, followed by incubation with HRP-secondary anti-rabbit antibody (1∶5,000; Millipore, USA) for 1 hr at room temperature. Blots were developed using ECL reagents (PerkinElmer, USA). Blots were re-identified after oligomeric antibody was stripped and re-probing with the anti-Aβ antibody 6E10 (1∶1,000; Signet, UK). The density of dots was analyzed with Multi Gauge program (Fuji Film, Japan) and the data was normalized to the average density of the TG control group. […] Membrane was incubated in a 5% solution of non-fat dry milk for 1 hr at room temperature. […]

[5] = read-out: Remaining % of parent molecule at 60 min.
[6] = cortex, 10-100 mg/kg/day groups

## COc1ccc2cc(C=Cc3ccc(N(C)C)cc3)oc2c1 [KMS88009, 6-methoxy-2-(4-dimethylaminostyryl) benzofuran]
[1]
  half-life at 5 µM: 65.3 ± 0.6 min
[1]; [5]
  remaining at 1 h, 5 µM: 52.4 ± 0.3%
APP/PS1 TG mice; PO 10 mg/kg/day
  frequency of spontaneous alternation (Y-maze): 69.3%
APP/PS1 TG mice; PO 30 mg/kg/day
  frequency of spontaneous alternation (Y-maze): 68.5%
APP/PS1 TG mice; PO 100 mg/kg/day
  frequency of spontaneous alternation (Y-maze): 70.2%
In vitro
  half-life at 5 µM: 35.2 ± 0.6 min
  remaining at 1 h, 5 µM: 30.9 ± 0.2%
Solubility studies; DMSO/tween-20/saline, read-out: Solubility
  solubility: 583 µg/mL (≈ 1990 µM)
Solubility studies; DW (distilled water), 37 °C
  solubility: 0.000 mg/kg
Solubility studies; SIF, pH 6.8, 37 °C
  solubility: 0.000 mg/kg
Solubility studies; simulated gastric fluid (SGF), SGF, pH 1.2, 37 °C, read-out: Solubility
  solubility: 4 µg/mL (≈ 13.6 µM)
[2]; human liver microsomes 1 mg/mL, 5 µM, symbol
  Metabolic stability: √ (Mean percent value is confirmed over 90% at 60 min.)
[2]; human liver microsomes, read-out: Remaining % of parent molecule at 60 min.
  remaining at 1 h, 5 µM: 92.7 ± 0.4%
Soluble Aβ oligomers; 10 mg/kg/day
  reduction of soluble oligomeric Aβ vs vehicle-treated TG group: 43.1%
Soluble Aβ oligomers; 30 mg/kg/day
  reduction of soluble oligomeric Aβ vs vehicle-treated TG group: 43.2%
Soluble Aβ oligomers; 100 mg/kg/day
  reduction of soluble oligomeric Aβ vs vehicle-treated TG group: 46.4%
[3]
  half-life at 5 µM: 21.3 ± 0.8 min
[3]; [5]
  remaining at 1 h, 5 µM: 14.8 ± 0.2%
[4]
  half-life at 5 µM: 58.4 ± 0.4 min
[4]; [5]
  remaining at 1 h, 5 µM: 61.2 ± 0.2%
Aβ40 and Aβ42; [6]
  reduction of soluble Aβ40 level vs TG group: 44∼60%
  reduction of soluble Aβ42 level vs vehicle-treated TG mice: 59∼66%
Aβ40 and Aβ42; hippocampus, except the 10 mg/kg/day group
  reduction of soluble Aβ40 level vs TG group: 34∼36%
